Results taken from PMC9034499, “RORγt agonist enhances anti-PD-1 therapy by promoting monocyte-derived dendritic cells through CXCL10 in cancers” (Journal of Experimental & Clinical Cancer Research : CR, 2022).
Like-named read-outs stand apart in the source and are kept apart here.

Tests used:
RORβ = target: T1, RORβ (Homo sapiens, UniProt Q92753); assay: RORβ Gal4 reporter gene assay; type: cell-based
T1 construct: expressed in transfected cells
T1 sequence (Q92753 1-470): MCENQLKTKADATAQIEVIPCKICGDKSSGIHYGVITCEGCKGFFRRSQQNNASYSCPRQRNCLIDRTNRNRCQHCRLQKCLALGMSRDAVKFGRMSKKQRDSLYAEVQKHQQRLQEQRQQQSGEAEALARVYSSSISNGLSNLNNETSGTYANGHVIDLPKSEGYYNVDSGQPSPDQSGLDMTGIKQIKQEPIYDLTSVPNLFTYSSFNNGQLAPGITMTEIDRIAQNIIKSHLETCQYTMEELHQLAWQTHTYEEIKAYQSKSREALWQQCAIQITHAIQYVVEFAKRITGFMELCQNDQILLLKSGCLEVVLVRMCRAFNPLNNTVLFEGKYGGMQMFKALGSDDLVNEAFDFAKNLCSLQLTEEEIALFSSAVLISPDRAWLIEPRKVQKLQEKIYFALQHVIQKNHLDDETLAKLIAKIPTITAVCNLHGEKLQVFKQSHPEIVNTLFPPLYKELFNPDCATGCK
Method: The hRORγt LBD coding sequence was inserted into a pBIND expression vector (Promega, E1581) to express the ROR-GAL4 binding domain chimeric receptors. This expression vector and a reporter vector (pGL4.35, which carries a stably integrated GAL4 promoter-driven luciferase reporter gene [luc2P/9XGAL4 UAS/Hygro]) were co-transfected into the HEK293T host cells. The assay was performed according to a previous study. EC50 of the sigmoidal fits were analyzed using Prism 5 and a four-parameter logistic fit equation, Y = bottom + (top–bottom) / (1 + 10(logEC50 − X) × hill slope). "X" is the log of compound concentration, and "Y" is the response, which increases as X increases. Y starts at "bottom" and goes to "top" with a sigmoid shape.
Supplementary file 13046_2022_2289_MOESM2_ESM.pdf: Additional file 2: Fig. S2. Selectivity of RORγt agonists in vitro. […] Lymphoma EL4 cells were treated with various concentrations of 8-074 for 48 hours and analyzed by flow cytometry after Annexin V-FITC/PI staining. […] (h) The relative mRNA expression of Cd19 in B cells as determined by qPCR. […] (i) Relative mRNA expression of Il-1β levels in macrophages as determined by qPCR. ***P < 0.001. (j) Relative mRNA expression of Il-6 in macrophages as determined by qPCR. *P < 0.05. (k) Relative mRNA expression of Il-10 in macrophages as determined by qPCR. *P < 0.05. […]

mouse Tc17 cells = assay: Mouse Th17/Tc17 differentiation dose-response (flow cytometry); type: cell-based; conditions: for EC50: Mus musculus
[1] = fit of dose-response curve Fig. 1i

EC50 (RORβ): > 10 µM
EC50 (mouse Tc17 cells; 8-074 0.001 to 320 nM, Th17% by flow cytometry, read-out: EC50, stimulation of mouse Tc17 cells): 0.0112 µM
EC50 (mouse Tc17 cells; Fig. S2b summary, read-out: mTh17): 0.0112 µM
Compound: CCS(=O)(=O)c1ccc(CC(=O)Nc2ccc(-c3ccc(CC(C)C)c(C#N)c3)c(C(F)(F)F)c2)cc1 [8-074]
HillSlope (mouse Tc17 cells; [1]): 1.006
Span (mouse Tc17 cells; [1]): 111.9
